Test results from PubChem BioAssay (NCI).
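GI50 = concentration required for 50% inhibition of growth. The concentration for full growth arrest is given as TGI.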

Assays:
Test in all cases: inhibition of tumour cell growth, NCI panel, 384-well format
[1] = tested on: MDA-MB-468 breast
[2] = tested on: LOX IMVI melanoma
[3] = tested on: UACC-257 melanoma
[4] = tested on: A498 renal
[5] = tested on: OVCAR-4 ovarian
[6] = tested on: EKVX NSCLC
[7] = tested on: IGROV1 ovarian
[8] = tested on: SF-268 CNS
[9] = tested on: SK-OV-3 ovarian
[10] = tested on: A549 NSCLC
[11] = tested on: ACHN renal
[12] = tested on: HCC-2998 colon
[13] = tested on: T-47D breast
[14] = tested on: M14 melanoma
[15] = tested on: SW-620 colon
[16] = tested on: NCI-H322M lung
[17] = tested on: DU-145 prostate
[18] = tested on: NCI/ADR-RES ovarian
[19] = tested on: SNB-75 CNS
[20] = tested on: SNB-19 CNS
[21] = tested on: MOLT-4 leukemia
[22] = tested on: 786-0 renal
[23] = tested on: SR leukemia
[24] = tested on: TK-10 renal
[25] = tested on: NCI-H23 lung
[26] = tested on: HCT-15 colon
[27] = tested on: HOP-62 NSCLC
[28] = tested on: MDA-MB-231 breast
[29] = tested on: SN12C renal
[30] = tested on: SF-539 CNS
[31] = tested on: MCF7 breast
[32] = tested on: HL-60(TB) leukemia
[33] = tested on: BT-549 breast
[34] = tested on: SK-MEL-5 melanoma
[35] = tested on: MALME-3M melanoma
[36] = tested on: CAKI-1 renal
[37] = tested on: RXF 393 renal
[38] = tested on: PC-3 prostate
[39] = tested on: UO-31 renal
[40] = tested on: KM12 colon
[41] = tested on: SK-MEL-28 melanoma
[42] = tested on: HOP-92 NSCLC
[43] = tested on: U251 glioblastoma
[44] = tested on: UACC-62 melanoma
[45] = tested on: OVCAR-8 ovarian
[46] = tested on: NCI-H226 lung
[47] = tested on: NCI-H460 NSCLC
[48] = tested on: OVCAR-3 ovarian
[49] = tested on: CCRF-CEM leukemia
[50] = tested on: NCI-H522 lung
[51] = tested on: RPMI-8226 leukemia
[52] = tested on: HCT-116 colon
[53] = tested on: HT29 colon
[54] = tested on: MDA-MB-435 melanoma
[55] = tested on: SF-295 CNS
[56] = tested on: COLO 205 colon
[57] = tested on: HS 578T breast
[58] = tested on: K-562 leukemia

For `Nc1nc(-n2cccn2)nc(-n2cccn2)c1Br`, the GI50 [1] was greater than 100 µM, the TGI [1] was greater than 100 µM and the GI50 [2] was greater than 100 µM. For the same compound, the TGI [2] was greater than 100 µM, the GI50 [3] was greater than 100 µM and the TGI [3] was greater than 100 µM. The GI50 [4] was greater than 100 µM, the TGI [4] was greater than 100 µM and the GI50 [5] was greater than 100 µM. It also gave a TGI [5] greater than 100 µM, a GI50 [6] greater than 100 µM and a TGI [6] greater than 100 µM. For the same compound, the GI50 [7] was greater than 100 µM, the TGI [7] was greater than 100 µM and the GI50 [8] was greater than 100 µM. It also gave a TGI [8] greater than 100 µM, a GI50 [9] greater than 100 µM and a TGI [9] greater than 100 µM. The GI50 [10] was greater than 100 µM, the TGI [10] was greater than 100 µM and the GI50 [11] was greater than 100 µM. The TGI [11] was greater than 100 µM, the GI50 [12] was greater than 100 µM and the TGI [12] was greater than 100 µM. For the same compound, the GI50 [13] was greater than 100 µM, the TGI [13] was greater than 100 µM and the GI50 [14] was greater than 100 µM. It also gave a TGI [14] greater than 100 µM, a GI50 [15] greater than 100 µM and a TGI [15] greater than 100 µM. It also gave a GI50 [16] greater than 100 µM, a TGI [16] greater than 100 µM and a GI50 [17] greater than 100 µM. It also gave a TGI [17] greater than 100 µM, a GI50 [18] greater than 100 µM and a TGI [18] greater than 100 µM. The GI50 [19] was greater than 100 µM, the TGI [19] was greater than 100 µM and the GI50 [20] was greater than 100 µM. The TGI [20] was greater than 100 µM, the GI50 [21] was greater than 100 µM and the TGI [21] was greater than 100 µM. For the same compound, the GI50 [22] was greater than 100 µM, the TGI [22] was greater than 100 µM and the GI50 [23] was greater than 100 µM. The TGI [23] was greater than 100 µM, the GI50 [24] was greater than 100 µM and the TGI [24] was greater than 100 µM. It also gave a GI50 [25] greater than 100 µM, a TGI [25] greater than 100 µM and a GI50 [26] greater than 100 µM. For the same compound, the TGI [26] was greater than 100 µM, the GI50 [27] was greater than 100 µM and the TGI [27] was greater than 100 µM. For the same compound, the GI50 [28] was greater than 100 µM, the TGI [28] was greater than 100 µM and the GI50 [29] was greater than 100 µM. It also gave a TGI [29] greater than 100 µM, a GI50 [30] greater than 100 µM and a TGI [30] greater than 100 µM. For the same compound, the GI50 [31] was greater than 100 µM, the TGI [31] was greater than 100 µM and the GI50 [32] was greater than 100 µM. For the same compound, the TGI [32] was greater than 100 µM, the GI50 [33] was greater than 100 µM and the TGI [33] was greater than 100 µM. For the same compound, the GI50 [34] was greater than 100 µM, the TGI [34] was greater than 100 µM and the GI50 [35] was greater than 100 µM. It also gave a TGI [35] greater than 100 µM, a GI50 [36] greater than 100 µM and a TGI [36] greater than 100 µM. The GI50 [37] was greater than 100 µM, the TGI [37] was greater than 100 µM and the GI50 [38] was greater than 100 µM. For the same compound, the TGI [38] was greater than 100 µM, the GI50 [39] was greater than 100 µM and the TGI [39] was greater than 100 µM. The GI50 [40] was greater than 100 µM, the TGI [40] was greater than 100 µM and the GI50 [41] was greater than 100 µM. For the same compound, the TGI [41] was greater than 100 µM, the GI50 [42] was greater than 100 µM and the TGI [42] was greater than 100 µM. For the same compound, the GI50 [43] was greater than 100 µM, the TGI [43] was greater than 100 µM and the GI50 [44] was greater than 100 µM. The TGI [44] was greater than 100 µM, the GI50 [45] was greater than 100 µM and the TGI [45] was greater than 100 µM. For the same compound, the GI50 [46] was greater than 100 µM, the TGI [46] was greater than 100 µM and the GI50 [47] was greater than 100 µM. The TGI [47] was greater than 100 µM, the GI50 [48] was greater than 100 µM and the TGI [48] was greater than 100 µM. It also gave a GI50 [49] greater than 100 µM, a TGI [49] greater than 100 µM and a GI50 [50] greater than 100 µM. The TGI [50] was greater than 100 µM, the GI50 [51] was greater than 100 µM and the TGI [51] was greater than 100 µM. For the same compound, the GI50 [52] was greater than 100 µM, the TGI [52] was greater than 100 µM and the GI50 [53] was greater than 100 µM. For the same compound, the TGI [53] was greater than 100 µM, the GI50 [54] was greater than 100 µM and the TGI [54] was greater than 100 µM. For the same compound, the GI50 [55] was greater than 100 µM, the TGI [55] was greater than 100 µM and the GI50 [56] was greater than 100 µM. The TGI [56] was greater than 100 µM, the GI50 [57] was greater than 100 µM and the TGI [57] was greater than 100 µM. It also gave a GI50 [58] greater than 100 µM and a TGI [58] greater than 100 µM.
